What all share (format): cell-based, Chinese Hamster
Test [1] has as its system Cell Line 1 (CHO) expressing Antibody 1. The experiment in a line: Acidic species variants (WCX-10) of Antibody 1, Cell Line 1 shake flask fed-batch culture. Particulars: shaker; for reduction of total acidic species content, absolute value: vs unsupplemented control. The method, then:
A recombinant Chinese Hamster Ovary (CHO) cell line (Cell Line 1) expressing a humanized monoclonal antibody (Antibody 1) was evaluated in 2 different cultures vessels (shaker flasks and 3 L laboratory-scale bioreactors). The cell line was of CHO DUX-B11 origin based on a DHFR (dihydrofolate reductase) expression system and cultured in a chemically defined basal media, and fed periodically with a chemically-defined feed media (CDFM). The media utilized throughout all of the experiments were chemically-defined, and both animal-component free, and protein-free. Each of the respective media were supplemented as needed with selected bioflavonoids to evaluate for their potential impact on the resulting acidic species profile. In preparation of the cultures, the cell lines were serially expanded through separate seed train inoculums to generate enough cells for inoculation. Process conditions utilized during the cultures were slightly different depending on the culture scale, but similar within each scale to the respective non-bioflavonoid supplemented control conditions. All bioflavonoids utilized were purchased from Sigma-Aldrich (St. Louis, Mo.).
Samples were analyzed using an HPLC system equipped with a ProPac WCX-10 analytical column (Thermo Scientific, Sunnyvale, Calif.). Approximately 100 μg of sample was loaded in 6% Buffer B (10 mM sodium phosphate, 500 mM NaCl, pH 5.5) and 94% Buffer A (10 mM sodium phosphate, pH 7.5). The column was run at a flow rate of 1.0 mL/min. The protein was eluted from the column by increasing the buffer B composition from 6% to 16% over 20 minutes. The protein peaks were measured using UV absorbance at 280 nm as the peaks eluted from the column. The column was regenerated using 100% buffer B followed be a re-equilibration period using initial condition before the injection of the next sample. Peaks eluting before the main peak were termed “acidic peaks” and peaks eluting after the main peak were called “basic peaks” (FIG. 2).
In this Example, EGCG was added into the feed (cell culture medium) at the concentration range of 5 mg/L (low), 20 mg/L (mid) and 50 mg/L (high) in a shaker experiment to determine the impact of EGCG on product quality of a humanized monoclonal antibody (Antibody 1). Detailed cell culture conditions are as described in Table 1.
However, it was not clear whether or not additional bioflavonoids would also have the same effects. To evaluate the impact of alternative bioflavonoids, fed-batch shake flask cultures were initiated with CDFM supplemented with 3 different concentrations of genistein, rutin, and naringin, in addition to EGCG. Cell growth, viability, as well as titers and acidic species variants were measured.
Charge Heterogeneity via Weak Cation Exchange Chromatography-Samples were analyzed using an HPLC system equipped with a ProPac WCX-10 analytical column (Thermo Scientific, Sunnyvale, Calif.). Approximately 100 μg of sample was loaded in 6% Buffer B (10 mM sodium phosphate, 500 mM NaCl, pH 5.5) and 94% Buffer A (10 mM sodium phosphate, pH 7.5). The column was run at a flow rate of 1.0 mL/min. The protein was eluted from the column by increasing the buffer B composition from 6% to 16% over 20 minutes. The protein peaks were measured using UV absorbance at 280 nm as the peaks eluted from the column. The column was regenerated using 100% buffer B followed be a re-equilibration period using initial condition before the injection of the next sample. Peaks eluting before the main peak were termed ‘acidic peaks’ and peaks eluting after the main peak were called ‘basic peaks’ (FIG. 2).
To evaluate the impact of other bioflavonoids, fed-batch shake flask cultures were initiated with CDFM supplemented with multiple concentrations of rutin. Cell growth, viability, as well as titers and acidic species variants were measured and shown in FIGS. 14 and 15, respectively.

In test [2] the test system is recombinant CHO cell lines. Nature of the test: Harvest titer / productivity summary across bioflavonoid supplemented cultures. The method, then:
(§1) Four different recombinant Chinese Hamster Ovary (CHO) cell lines expressing four different recombinant glycoproteins were evaluated in either shaker flask culture, or 3 L laboratory scale bioreactors. Cell Line 1 was genetically engineered to express Antibody 1, Cell Line 2 was genetically engineered to express Antibody 2, Cell Line 3 was genetically engineered to express dual variable domain immunoglobulin 1 (DVD1) and Cell Line 4 was genetically engineered to express dual variable domain immunoglobulin 2 (DVD2).
Protein A Affinity Chromatography-Antibody titers were measured from crude cell culture harvests on a Poros ATM (Life Technologies, Carlsbad, Calif.) affinity column using an HPLC system operating with a low pH, step elution gradient with detection at 280 nm. Absolute concentrations were assigned with respect to reference standard calibration curves.

The subject of test [3] is Cell Line 2 (CHO) expressing Antibody 2. The experiment in a line: Acidic species variants (WCX-10) of Antibody 2, Cell Line 2 shake flask culture. Particulars: 0.05 and 0.1 g/L; shaker. The method, then: as §1
Charge Heterogeneity via Weak Cation Exchange Chromatography-Samples were analyzed using an HPLC system equipped with a ProPac WCX-10 analytical column (Thermo Scientific, Sunnyvale, Calif.). Approximately 100 μg of sample was loaded in 6% Buffer B (10 mM sodium phosphate, 500 mM NaCl, pH 5.5) and 94% Buffer A (10 mM sodium phosphate, pH 7.5). The column was run at a flow rate of 1.0 mL/min. […] The protein peaks were measured using UV absorbance at 280 nm as the peaks eluted from the column. […]
To further evaluate the impact of EGCG on acidic region variants, Antibody 2 and dual variable domain immunoglobulin 1 (DVD1) were examined. Antibody 2 was evaluated in a set of shaker and lab-scale bioreactor experiments with two feed amounts (100% and 50%) as unsupplemented control conditions. […]

As for `O=C(O[C@@H]1Cc2c(O)cc(O)cc2O[C@@H]1c1cc(O)c(O)c(O)c1)c1cc(O)c(O)c(O)c1` [EGCG, epigallocatechin gallate], the “reduction of total acidic species content, relative value” in test [1] (5 mg/L in feed) came to 5%; in test [1] (20 mg/L in feed), 10%; in test [1] (50 mg/L in feed), 35%. Further, the entries for the “reduction of total acidic species content, absolute value” in test [1] (5 mg/L in feed), in test [1] (20 mg/L in feed) and in test [1] (50 mg/L in feed) were 1%, 2% and 7%, respectively. In test [2] (concentrations up to 0.1 g/L, supplemented cultures overall), the “drop in harvest titer” value is given as “at most 8%”. The recombinant protein productivity result in test [2] (supplementation up to 0.2 g/L) is given as “only nominally impacted”. The “relative reduction of total acidic species content vs unsupplemented control” value in test [3] is 21%-45%.
